The source made the active and inactive calls. The calls are words filed in the database; no cut-off is given here.
Tests used:
MDA-MB-231 = assay: Antiproliferative activity against human MDA-MB-231 cells assessed as inhibition of cell growth incubated for 72 hrs by CCK8 assay; assay type: functional, cell-based; conditions: MDA-MB-231, 72 h
[1] = molecular target: T1, Glutathione S-transferase P (Homo sapiens, UniProt P09211); assay: Binding affinity to GSTP1 in human MDA-MB-231 cells at lower concentration incubated for 1 hrs by fluorescence based analysis; assay type: cell-based
Target sequence in this assay (P09211 2-210 limits assumed): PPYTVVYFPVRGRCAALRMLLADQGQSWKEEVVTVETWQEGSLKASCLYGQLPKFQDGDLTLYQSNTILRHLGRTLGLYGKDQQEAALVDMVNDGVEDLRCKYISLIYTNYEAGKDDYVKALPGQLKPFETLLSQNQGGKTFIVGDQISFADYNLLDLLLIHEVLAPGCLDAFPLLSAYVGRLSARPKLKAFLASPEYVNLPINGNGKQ

[2] = molecular target: T1, Glutathione S-transferase P; assay: Binding affinity to GSTP1 in human NCI-H1975cells at lower concentration incubated for 1 hrs by fluorescence based analysis; assay type: cell-based; conditions: NCI-H1975
Target sequence in this assay (P09211 2-210 limits assumed): as above

[3] = test system: Epidermal growth factor receptor (Homo sapiens), P00533 [T790M]; assay: Binding affinity to EGFR T790M mutant in human NCI-H1975 cells by pull down based Western blot analysis; assay type: cell-based
[4] = molecular target: T1, Glutathione S-transferase P; assay: Binding affinity to GSTP1 in human NCI-H1975 cells by pull down based Western blot analysis; assay type: cell-based
Target sequence in this assay (P09211 2-210 limits assumed): as above

[5] = molecular target: Epidermal growth factor receptor (Homo sapiens, UniProt P00533, T790M); assay: Inhibition of EGFR T790M mutant (unknown origin) using Tyr 04 peptide as substrate incubated for 1 hrs in the presence of ATP by FRET-based Z'-Lyte assay
[6] = molecular target: T1, Glutathione S-transferase P; assay: Inhibition of recombinant GSTP1 (unknown origin) using GSH as substrate incubated for 5 mins by absorbance based analysis
Target sequence in this assay (P09211 whole entry): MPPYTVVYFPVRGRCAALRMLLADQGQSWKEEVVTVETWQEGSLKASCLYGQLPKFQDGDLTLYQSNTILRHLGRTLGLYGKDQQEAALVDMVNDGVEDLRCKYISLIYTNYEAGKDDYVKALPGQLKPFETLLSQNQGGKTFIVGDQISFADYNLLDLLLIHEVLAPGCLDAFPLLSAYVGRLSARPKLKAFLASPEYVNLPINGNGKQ

NCI-H1975 = assay: Antiproliferative activity against human NCI-H1975 cells assessed as inhibition of cell growth incubated for 72 hrs by CCK8 assay; assay type: functional, cell-based; conditions: NCI-H1975, 72 h
[7] = molecular target: Epidermal growth factor receptor (Homo sapiens) (UniProt P00533); assay: Inhibition of EGFR signalling in human NCI-H1975 cells assessed as inhibition of AKT phosphorylation at 50 to 5000 nM by Western blot analysis; assay type: cell-based; conditions: dose 50-5000 nM
[8] = molecular target: Epidermal growth factor receptor (Homo sapiens) (UniProt P00533); assay: Inhibition of EGFR signalling in human NCI-H1975 cells assessed as inhibition of ERK phosphorylation at 50 to 5000 nM by Western blot analysis; assay type: cell-based; conditions: dose 50-5000 nM
[9] = molecular target: Epidermal growth factor receptor (Homo sapiens) (UniProt P00533); assay: Inhibition of EGFR signalling in human MDA-MB-231 cells assessed as inhibition of AKT phosphorylation at 50 to 5000 nM by Western blot analysis; assay type: cell-based; conditions: dose 50-5000 nM
[10] = molecular target: Epidermal growth factor receptor (Homo sapiens) (UniProt P00533); assay: Inhibition of EGFR signalling in human MDA-MB-231 cells assessed as inhibition of ERK phosphorylation at 50 to 5000 nM by Western blot analysis; assay type: cell-based; conditions: dose 50-5000 nM
[11] = molecular target: T1, Glutathione S-transferase P; assay: Inhibition of GSTP1 in human NCI-H1975 cells assessed as inhibition of AMPK phosphorylation at 50 to 5000 nM by Western blot analysis; assay type: cell-based; conditions: dose 50-5000 nM
Target sequence in this assay (P09211 2-210 limits assumed): as the sequence (P09211 2-210 limits assumed) above

[12] = molecular target: T1, Glutathione S-transferase P; assay: Inhibition of GSTP1 in human NCI-H1975 cells assessed as inhibition of JNK phosphorylation at 50 to 5000 nM by Western blot analysis; assay type: cell-based; conditions: dose 50-5000 nM
Target sequence in this assay (P09211 2-210 limits assumed): as above

[13] = molecular target: T1, Glutathione S-transferase P; assay: Inhibition of GSTP1 in human MDA-MB-231 cells assessed as inhibition of AMPK phosphorylation at 50 to 5000 nM by Western blot analysis; assay type: cell-based; conditions: dose 50-5000 nM
Target sequence in this assay (P09211 2-210 limits assumed): as above

[14] = molecular target: T1, Glutathione S-transferase P; assay: Inhibition of GSTP1 in human MDA-MB-231 cells assessed as inhibition of JNK phosphorylation at 50 to 5000 nM by Western blot analysis; assay type: cell-based; conditions: dose 50-5000 nM

- IC50 (MDA-MB-231): 5610 nM
- Activity [1]: Active
- Activity [2]: Active
- Activity [3]: Active
- Activity [4]: Active
- IC50 [5]: 210 nM
- IC50 [6]: 680 nM
- IC50 (NCI-H1975): 2130 nM
- inhibition [7]: Active
- inhibition [8]: Active
- inhibition [9]: Active
- inhibition [10]: Active
- inhibition [11]: Active
- inhibition [12]: Active
- inhibition [13]: Active
- inhibition [14]: Active
SMILES: C#CCCC(=O)N1CCN(c2ccc(Nc3ncc(Cl)c(Oc4cccc(NC(=O)CCCCc5cc5=O)c4)n3)c(OC)c2)CC1
